From patent publication US20240407990A1, “SYNERGISTIC ANTIOXIDANT COMPOSITIONS” (The Procter & Gamble Company, priority 2023, published 2024)

Key:
[1] = system: keratinocytes; experiment: Peroxide-Induced Keratinocyte Stress (ATP levels post-peroxide exposure); assay type: cell-based; design: key: net luminescence counts (treatment minus vehicle control)
Excerpt: This methodology is further discussed in Assessing bioenergetic function in response to oxidative stress by metabolic profiling. Free Radical Biology and Medicine; […], Benavides […], Zelickson […]. Zou L, Chatham J C, Hill B G, Zhang […]; 2011 Nov. 1; 51(9):1621-35, incorporated herein by reference, as well as in Proceedings of the National Academy of Sciences of the United States of America; Miyoshi N, Oubrahim H, Chock […] . . . 2006 Feb. 7; 103(6):1727-31, incorporated herein by reference. […] Hydrogen peroxide is a well-known ROS as is commonly used as a surrogate to analyze the effects of a variety of ROS. In this test, keratinocytes are cultured (passage <8) in T150 flasks using Epi-Life medium (Calcium Free and Phenol Red Free, supplemented with penicillin/streptomycin and keratinocytes growth supplement, Invitrogen cat #[…]500) in a CO2 incubator (Forma 51030532, Marietta OH). The keratinocytes are then plated into 96 well plates, 10,000 cells/well, 0.2 ml media. […] Luminescence is measured on a SpectraMax M3 (Molecular Devices, Sunnyvale, CA). Net luminescence is calculated by subtracting the luminescence counts from the vehicle control from the luminescence counts from the treatment groups. […] In each case, the arithmetic sum of the measured anti-oxidant activity of the three individual components is compared to the measured anti-oxidant activity of the triad combination of the same levels. Experiments are done in triplicate enabling the statistical determination (by T-test) of significance of whether synergism (observed/calculated ratio is greater than 1) is observed.

[2] = system: skin; conditions: cited from earlier work
[3] = system: skin fibroblasts; conditions: skin fibroblasts in vitro; cited from earlier work

Q: For `NC(=O)c1cccnc1` [Niacinamide, niacinamide], which “Mean Keratinocyte ATP Level” value ([1]; Niacinamide 0.005% alone, post-peroxide, series with PO 0.5%) is on record?
A: 100.3

Q: What about the “Mean Keratinocyte ATP Level” value ([1]; Niacinamide 0.005% alone, post-peroxide, series with PO 0.8%) of the same compound?
A: 32.7

Q: And the “Mean Keratinocyte ATP Level” value ([1]; Niacinamide 0.01% alone, post-peroxide, series with PO 0.5%)?
A: 154.3

Q: What about the “Mean Keratinocyte ATP Level” value ([1]; Niacinamide 0.01% alone, post-peroxide, series with PO 0.8%) of the same compound?
A: 85.7

Q: What about the “Mean Keratinocyte ATP Level” value ([1]; Niacinamide 0.05% alone, post-peroxide, series with PO 0.5%) of the same compound?
A: 341.0

Q: And the “Mean Keratinocyte ATP Level” value ([1]; Niacinamide 0.05% alone, post-peroxide, series with PO 0.8%)?
A: 465.0

Q: And the “Mean Keratinocyte ATP Level” value ([1]; Niacinamide 0.1% alone, post-peroxide, series with PO 0.5%)?
A: 1142.0

Q: And the “Mean Keratinocyte ATP Level” value ([1]; Niacinamide 0.1% alone, post-peroxide, series with PO 0.8%)?
A: 875.0

Q: And the “Mean Keratinocyte ATP Level” value ([1]; Niacinamide 1.0% alone, post-peroxide, series with PO 0.5%)?
A: 9208.3

Q: What about the “Mean Keratinocyte ATP Level” value ([1]; Niacinamide 1.0% alone, post-peroxide, series with PO 0.8%) of the same compound?
A: 6003.7

Q: And the “Mean Keratinocyte ATP Level” value ([1]; Niacinamide 1.8% alone, post-peroxide, series with PO 0.5%)?
A: 12314.3

Q: And the “Mean Keratinocyte ATP Level” value ([1]; Niacinamide 1.8% alone, post-peroxide, series with PO 0.8%)?
A: 11751.3

Q: And the “lipoperoxide generation in skin” value [2]?
A: inhibit

Q: What about the “oxidative damage caused by pollutant particulate matter” value [2] of the same compound?
A: inhibit

Q: Which “formation of reactive oxygen species (ROS)” value [3] does the source give for `CC(C)(CO)[C@@H](O)C(=O)NCCCO` [Panthenol, panthenol] here?
A: inhibit

Q: What about the “Mean Keratinocyte ATP Level” value ([1]; Panthenol 0.005% alone, post-peroxide, series with PO 0.5%) of the same compound?
A: 193.3

Q: What about the “Mean Keratinocyte ATP Level” value ([1]; Panthenol 0.005% alone, post-peroxide, series with PO 0.8%) of the same compound?
A: 170.0

Q: What about the “Mean Keratinocyte ATP Level” value ([1]; Panthenol 0.01% alone, post-peroxide, series with PO 0.5%) of the same compound?
A: 473.3

Q: And the “Mean Keratinocyte ATP Level” value ([1]; Panthenol 0.01% alone, post-peroxide, series with PO 0.8%)?
A: 280.0

Q: And the “Mean Keratinocyte ATP Level” value ([1]; Panthenol 0.05% alone, post-peroxide, series with PO 0.5%)?
A: 617.3

Q: What about the “Mean Keratinocyte ATP Level” value ([1]; Panthenol 0.05% alone, post-peroxide, series with PO 0.8%) of the same compound?
A: 550.7

Q: What about the “Mean Keratinocyte ATP Level” value ([1]; Panthenol 0.1% alone, post-peroxide, series with PO 0.5%) of the same compound?
A: 1234.3

Q: What about the “Mean Keratinocyte ATP Level” value ([1]; Panthenol 0.1% alone, post-peroxide, series with PO 0.8%) of the same compound?
A: 1227.7

Q: What about the “Mean Keratinocyte ATP Level” value ([1]; Panthenol 0.2% alone, post-peroxide, series with PO 0.5%) of the same compound?
A: 5282.0

Q: What about the “Mean Keratinocyte ATP Level” value ([1]; Panthenol 0.2% alone, post-peroxide, series with PO 0.8%) of the same compound?
A: 5711.7

Q: Which “Mean Keratinocyte ATP Level” value ([1]; Piroctone Olamine 0.5% alone, post-peroxide exposure) does the source give for `Cc1cc(CC(C)CC(C)(C)C)n(O)c(=O)c1.NCCO` (stereo not drawn) [Piroctone Olamine, piroctone olamine] here?
A: 13548.3

Q: What about the “Mean Keratinocyte ATP Level” value ([1]; Piroctone Olamine 0.8% alone, post-peroxide exposure) of the same compound?
A: 18548.3
